Among the data in patent US9029359B2, “Heteroaryl Btk inhibitors” (Biogen Idec MA, Inc., priority 2009, dated 2015) are IC50 values, retold here.

What is called IC50 is the point on the concentration scale where inhibition reaches its midpoint.

The structures appear in SMILES notation.

This assay deals with T1, BTK (Homo sapiens, UniProt Q06187).
T1 construct: purchased Upstate 14-552
T1 sequence (Q06187 whole entry): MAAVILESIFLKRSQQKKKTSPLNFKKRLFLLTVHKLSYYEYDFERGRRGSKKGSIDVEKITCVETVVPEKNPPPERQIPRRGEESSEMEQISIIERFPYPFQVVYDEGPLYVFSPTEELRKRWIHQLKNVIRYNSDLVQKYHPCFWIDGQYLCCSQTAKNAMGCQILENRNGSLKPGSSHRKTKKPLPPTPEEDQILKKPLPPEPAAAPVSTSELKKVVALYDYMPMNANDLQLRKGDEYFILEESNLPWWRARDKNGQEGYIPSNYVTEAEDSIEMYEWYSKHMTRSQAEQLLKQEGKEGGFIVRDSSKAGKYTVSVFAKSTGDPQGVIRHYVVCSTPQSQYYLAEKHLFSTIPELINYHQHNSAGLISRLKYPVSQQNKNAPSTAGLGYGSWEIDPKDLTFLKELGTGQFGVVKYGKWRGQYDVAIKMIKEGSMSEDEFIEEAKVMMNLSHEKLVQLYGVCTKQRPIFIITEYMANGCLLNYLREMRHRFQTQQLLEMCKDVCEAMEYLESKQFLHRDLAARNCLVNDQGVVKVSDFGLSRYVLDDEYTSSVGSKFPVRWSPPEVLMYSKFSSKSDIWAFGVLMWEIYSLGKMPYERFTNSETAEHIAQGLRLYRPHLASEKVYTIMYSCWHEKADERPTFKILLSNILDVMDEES
Kind of assay: In vitro BTK kinase assay: BTK-POLYGAT-LS ASSAY. The format is biochemical. Particulars: ATP 10 uM. The method, boiled down:
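BTK phosphorylation of polyGAT (100 nM final) with ATP at 10 μM final, 10 mM Tris-HCl pH 7.5 kinase buffer, quenched by EDTA after 30 min. Potency given as IC50.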
`O=C(CNc1cccc(CN2CCCCC2)c1)NC1CCCN(c2ncnc3[nH]ccc23)C1` (centres unmarked) [Example 346] came in with an IC50 of more than 10000 nM.
With `Cc1cc(NCC(=O)NC2CCCN(c3ncnc4[nH]ccc34)C2)n(C)n1` (centres unmarked) [Example 347] the figure was more than 10000 nM; with `COc1ccc(NCC(=O)NC2CCCN(c3ncnc4[nH]ccc34)C2)cc1` (centres unmarked) [Example 348], more than 10000 nM.
With `O=C(CNc1cccc(-c2nnco2)c1)NC1CCCN(c2ncnc3[nH]ccc23)C1` (centres unmarked) [Example 349], the concentration for half-maximal inhibition (IC50) is more than 10000 nM.
`Cc1cc(NCC(=O)NC2CCCN(c3ncnc4[nH]ccc34)C2)on1` (centres unmarked) [Example 350] registered an IC50 of more than 10000 nM.
The result for `Cn1nc(-c2ccccc2)cc1NCC(=O)NC1CCCN(c2ncnc3[nH]ccc23)C1` (centres unmarked) [Example 351] reads more than 10000 nM; that for `O=C(CNc1ccccn1)NC1CCCN(c2ncnc3[nH]ccc23)C1` (centres unmarked) [Example 352], 1000 to 10000 nM.
`O=C(CNc1ccncc1)NC1CCCN(c2ncnc3[nH]ccc23)C1` (centres unmarked) [Example 353] returned an IC50 of more than 10000 nM.
For the compound `O=C(CNC1CCCCC1)NC1CCCN(c2ncnc3[nH]ccc23)C1` (centres unmarked) [Example 354], the IC50 was more than 10000 nM.
The result for `O=C(CNC1CCc2ccccc21)NC1CCCN(c2ncnc3[nH]ccc23)C1` (centres unmarked) [Example 355] reads more than 10000 nM; that for `O=C(CNC1CCCc2ccccc21)NC1CCCN(c2ncnc3[nH]ccc23)C1` (centres unmarked) [Example 356], more than 10000 nM; that for `O=C(CNCC1CCCCC1)NC1CCCN(c2ncnc3[nH]ccc23)C1` (centres unmarked) [Example 357], more than 10000 nM.
With `CC(=O)Nc1cccc(NCC(=O)NC2CCCN(c3ncnc4[nH]ccc34)C2)c1` (centres unmarked) [Example 358], the IC50 is more than 10000 nM.
`O=C(CNc1ccccc1)N[C@H]1CCN(c2ncnc3[nH]ccc23)C1` [Example 359] registered an IC50 of more than 10000 nM.
With `O=C(CNc1ccccc1)N[C@@H]1CCN(c2ncnc3[nH]ccc23)C1` [Example 360] the figure was more than 10000 nM; with `O=C(NC1CCCN(c2ncnc3[nH]ccc23)C1)C1NCc2ccccc21` (centres unmarked) [Example 361], more than 10000 nM; with `O=C(NC1CCCN(c2ncnc3[nH]ccc23)C1)c1cc2ccccc2[nH]1` (centres unmarked) [Example 362], 1000 to 10000 nM.
`O=C(CNC1CCCN(c2ncnc3[nH]ccc23)C1)Nc1ccccc1` (centres unmarked) [Example 363] had an IC50 of more than 10000 nM.
`O=C(NC1CCCCN(c2ncnc3[nH]ncc23)C1)[C@H](Nc1cc(Cl)cc(Cl)c1)C1CC1` (some centres unmarked) [Example 364]: the IC50 is less than 100 nM.
With `CC[C@H](C)[C@@H](Nc1cc(F)cc(Cl)c1)C(=O)N[C@H]1CN(c2ncnc3[nH]ncc23)CC[C@@H]1C` [Example 365] the figure was less than 100 nM.
Take `C[C@H]1CCN(c2ncnc3[nH]ncc23)C[C@@H]1NC(=O)CNc1ccccc1S(=O)(=O)N1CCCCC1` [Example 366]: the IC50 was less than 100 nM.
The result for `CC(C)Oc1ccccc1NCC(=O)N[C@@H]1CCCN(c2ncnc3[nH]ncc23)C1` [Example 367] reads 100 to 999 nM.
The result for `CN(C(C)(C)C)S(=O)(=O)c1ccccc1NCC(=O)N[C@@H]1CCCN(c2ncnc3[nH]ncc23)C1` [Example 368] reads 100 to 999 nM.
As to `CC[C@@H](Nc1cc(Cl)cc(Cl)c1)C(=O)N[C@H]1CN(c2ncnc3[nH]ncc23)CC[C@@H]1C` [Example 369], the IC50 fell in the range of 100 to 999 nM.
For `CC1CCCN(S(=O)(=O)c2ccccc2NCC(=O)N[C@@H]2CCCN(c3ncnc4[nH]ncc34)C2)C1` (some centres unmarked) [Example 370], the IC50 is less than 100 nM.
In the case of `CCC[C@@H](Nc1cccc2c1OC(F)(F)O2)C(=O)N[C@@H]1CCCN(c2ncnc3[nH]ncc23)C1` [Example 371], the IC50 was in the range of 100 to 999 nM.
With `CC1CN(S(=O)(=O)c2ccccc2NCC(=O)N[C@@H]2CCCN(c3ncnc4[nH]ncc34)C2)CC(C)O1` (some centres unmarked) [Example 372], the IC50 was in the range of 100 to 999 nM.
With `O=C([C@H](Nc1cc(F)cc(Cl)c1)C1CC1)N1CCCCC12CCCN(c1ncnc3[nH]ncc13)C2` (some centres unmarked) [Example 373] the figure was 1000 to 10000 nM; with `O=C(CNc1ccccc1C(=O)N1CCOCC1)N[C@@H]1CCCN(c2ncnc3[nH]ccc23)C1` [Example 374], 100 to 999 nM.
For the compound `CN(C)S(=O)(=O)c1ccccc1NCC(=O)N[C@@H]1CCCN(c2ncnc3[nH]ncc23)C1` [Example 375], the IC50 fell in the range of 100 to 999 nM.
As to `CCC[C@@H](Nc1ccccc1C(C)C)C(=O)N[C@@H]1CCCN(c2ncnc3[nH]ncc23)C1` [Example 376], the IC50 fell in the range of 100 to 999 nM.
In the case of `CN1CCN(S(=O)(=O)c2ccccc2NCC(=O)N[C@@H]2CCCN(c3ncnc4[nH]ccc34)C2)CC1` [Example 377], the IC50 lay within 1000 to 10000 nM.
For `CC1CN(S(=O)(=O)c2ccccc2NCC(=O)N[C@@H]2CCCN(c3ncnc4[nH]ccc34)C2)CC(C)O1` (some centres unmarked) [Example 378], the IC50 is 100 to 999 nM.
With `O=C([C@H](Nc1cc(F)cc(Cl)c1)C1CC1)N1CCCCC12CCCN(c1ncnc3[nH]ccc13)C2` (some centres unmarked) [Example 379] the figure was 1000 to 10000 nM.
With `O=C(CNc1ccccc1OCC1CC1)N[C@@H]1CCCN(c2ncnc3[nH]ncc23)C1` [Example 380], the IC50 was in the range of 100 to 999 nM.
The result for `O=C(CNc1ccccc1-n1cccn1)N[C@@H]1CCCN(c2ncnc3[nH]ccc23)C1` [Example 381] reads 1000 to 10000 nM; that for `Cc1cc(NCC(=O)N[C@@H]2CCCN(c3ncnc4[nH]ccc34)C2)cc(OC(F)(F)F)c1` [Example 382], less than 100 nM; that for `O=C(CNc1cc(Cl)cc(OC(F)(F)F)c1)N[C@@H]1CCCN(c2ncnc3[nH]ccc23)C1` [Example 383], less than 100 nM.
The result for `CC(C)(C)Oc1ccccc1NCC(=O)N[C@@H]1CCCN(c2ncnc3[nH]ccc23)C1` [Example 384] reads 100 to 999 nM.
For `O=C(CNc1cc(F)cc(Cl)c1)N[C@@H]1CCCN(c2ncnc3[nH]ncc23)C1` [Example 385], the IC50 is less than 100 nM.
The result for `Cc1ccc(F)c(NCC(=O)N[C@@H]2CCCN(c3ncnc4[nH]ccc34)C2)c1` [Example 386] reads 100 to 999 nM.
`O=C(N[C@@H]1CCCN(c2ncnc3[nH]ccc23)C1)C(Nc1cc(F)cc(Cl)c1)C1COC1` (some centres unmarked) [Example 387] registered a half-maximal inhibitory concentration (IC50) of 1000 to 10000 nM.
With `O=C(O)Cc1cccc(NCC(=O)N[C@@H]2CCCN(c3ncnc4[nH]ccc34)C2)c1` [Example 389] the figure was 1000 to 10000 nM; with `O=C(CNc1cccc(-c2nnco2)c1)N[C@@H]1CCCN(c2ncnc3[nH]ccc23)C1` [Example 390], 1000 to 10000 nM; with `O=C(N[C@@H]1CCCN(c2ncnc3[nH]ccc23)C1)[C@@H](CC1CC1)Nc1cccc(Cl)c1` [Example 391], 1000 to 10000 nM.
The result for `O=C(N[C@@H]1CCCN(c2ncnc3[nH]cc(F)c23)C1)[C@H](Nc1cc(Cl)cc(Cl)c1)C1CC1` [Example 392] reads 1000 to 10000 nM.
With `O=C(N[C@@H]1CCCN(c2ncnc3[nH]ccc23)C1)[C@@H](CC1CC1)Nc1cc(F)cc(Cl)c1` [Example 393] the figure was 1000 to 10000 nM.
The compound `O=C(CNc1cccc(CO)c1)N[C@@H]1CCCN(c2ncnc3[nH]ccc23)C1` [Example 394] had a 50% inhibitory concentration (IC50) of 1000 to 10000 nM.
The compound `O=C(CNc1cccc(-n2cncn2)c1)N[C@@H]1CCCN(c2ncnc3[nH]ccc23)C1` [Example 395] registered an IC50 of 1000 to 10000 nM.
The result for `O=C(CNc1cccc(-c2cc[nH]n2)c1)N[C@@H]1CCCN(c2ncnc3[nH]ccc23)C1` [Example 396] reads 1000 to 10000 nM; that for `CC(O)c1cccc(NCC(=O)N[C@@H]2CCCN(c3ncnc4[nH]ccc34)C2)c1` (some centres unmarked) [Example 397], 1000 to 10000 nM; that for `Cc1c(O)cccc1NCC(=O)N[C@@H]1CCCN(c2ncnc3[nH]ccc23)C1` [Example 398], 1000 to 10000 nM.
As to `O=C(CNc1cccc(-c2nnn[nH]2)c1)N[C@@H]1CCCN(c2ncnc3[nH]ccc23)C1` [Example 400], the IC50 lay within 1000 to 10000 nM.
`O=C(CNc1cccc(O)c1)N[C@@H]1CCCN(c2ncnc3[nH]ccc23)C1` [Example 401]: the IC50 was in the range of 1000 to 10000 nM.
`CCc1cccc(C)c1NCC(=O)N[C@@H]1CCCN(c2ncnc3[nH]ccc23)C1` [Example 403]: the IC50 fell in the range of 1000 to 10000 nM.
`O=C(CNc1cccc2ncccc12)N[C@@H]1CCCN(c2ncnc3[nH]ccc23)C1` [Example 405] registered an IC50 of 1000 to 10000 nM.
For `O=C(CNc1ccc2[nH]ncc2c1)N[C@@H]1CCCN(c2ncnc3[nH]ccc23)C1` [Example 406], the IC50 fell in the range of 1000 to 10000 nM.
With `Cc1cccc(Cl)c1NCC(=O)N[C@@H]1CCCN(c2ncnc3[nH]ccc23)C1` [Example 407] the figure was 1000 to 10000 nM.
`C[C@@H](O)[C@@H](Nc1cc(F)cc(Cl)c1)C(=O)N[C@@H]1CCCN(c2ncnc3[nH]ccc23)C1` [Example 408] showed an IC50 of 1000 to 10000 nM.
As for `N#Cc1c(F)cccc1NCC(=O)N[C@@H]1CCCN(c2ncnc3[nH]ccc23)C1` [Example 409], the IC50 was in the range of 1000 to 10000 nM.
`O=C(CNc1c(F)ccc(F)c1F)N[C@@H]1CCCN(c2ncnc3[nH]ccc23)C1` [Example 411] showed an IC50 of 100 to 999 nM.
The compound `N#Cc1ccc(NCC(=O)N[C@@H]2CCCN(c3ncnc4[nH]ccc34)C2)cc1` [Example 412] gave a half-inhibitory concentration (IC50) of 1000 to 10000 nM.
The result for `O=C(CNc1ccc(F)cc1)N[C@@H]1CCCN(c2ncnc3[nH]ccc23)C1` [Example 413] reads 100 to 999 nM.
The result for `CCOc1ccc(OCC)c(NCC(=O)N[C@@H]2CCCN(c3ncnc4[nH]ccc34)C2)c1` [Example 414] reads 1000 to 10000 nM; that for `Cc1cc(NCC(=O)N[C@@H]2CCCN(c3ncnc4[nH]ccc34)C2)ccc1Cl` [Example 415], 1000 to 10000 nM.
With `CC(C)(C)c1ccccc1NCC(=O)N[C@@H]1CCCN(c2ncnc3[nH]ccc23)C1` [Example 416] the figure was 1000 to 10000 nM; with `O=C(CNc1ccc(F)cc1Cl)N[C@@H]1CCCN(c2ncnc3[nH]ccc23)C1` [Example 417], 100 to 999 nM; with `O=C(CNc1ccc(Cl)cc1F)N[C@@H]1CCCN(c2ncnc3[nH]ccc23)C1` [Example 418], 1000 to 10000 nM.
`Cc1cc(Cl)ccc1NCC(=O)N[C@@H]1CCCN(c2ncnc3[nH]ccc23)C1` [Example 419] had an IC50 of 100 to 999 nM.
The result for `Cc1ccc(NCC(=O)N[C@@H]2CCCN(c3ncnc4[nH]ccc34)C2)c(F)c1` [Example 420] reads 1000 to 10000 nM.
With `Cc1cccc(C)c1NCC(=O)N[C@@H]1CCCN(c2ncnc3[nH]ccc23)C1` [Example 421] the figure was 1000 to 10000 nM.
